A short description of series [1]: In vitro volatilization test. The format is physicochemical. The note with it: 40 mg in petri dish on hot plate. From the text: In order to further assess the abuse-resistance performance of abuse-resistant dosage forms produced according to the present invention, the following in vitro volatilization test was developed. In particular, intentional abuse of controlled release pharmaceutical dosage forms may alternatively be carried out by volatilization (smoking, or free-basing) techniques that can liberate active agent (in immediately active form) from commercially available controlled release carrier systems. Accordingly, a preliminary in vitro volatilization test was developed in order to assess: (1) whether a free base form of an active agent (in this case, oxycodone) was more volatile than the salt (HCl) form; and (2) whether abuse-resistant dosage forms produced according to the instant invention can prevent inhalation abuse through volatilization.
Each petri dish was fitted with a watch glass as a cover, and the covered test dishes were placed on a hot plate (setting 10). After 30 seconds each watch glass was replaced with a fresh watch glass, and this step was repeated three times (to obtain 4 time points). Any residue deposited on the bottom side of the test watch glasses was carefully transferred with an Alpha Swab (TX 761) into 40/60 ethanol/0.005M HCl solution, and the concentration of oxycodone solution was determined by HPLC. The observations taken during the test were as follows. […]

The conditions of series [2]: after an IV dose, PET; cited from earlier work.
For series [3] the following is noted: cited from earlier work.

Regarding `COc1ccc2c3c1O[C@H]1C(=O)CC[C@@]4(O)[C@@H](C2)N(C)CC[C@]314.Cl` [oxycodone HCl], the “observation upon heating in volatilization test” value in series [1] is “extensive degradation and charring”.
As to `COC(=O)C(c1ccccc1)C1CCCCN1` (centres unmarked) [^11C-labeled methylphenidate], in series [2], the “brain clearance half life” value was 1.5 h and the “brain uptake Tmax” value was under 0.167 h.
Turning to `COC(=O)C(c1ccccc1)C1CCCCN1` (racemic) [methylphenidate, dl-threo-methyl-2-phenyl-2-(2-piperidyl) acetate], the “dose deesterified to the inactive major metabolite, ritalinic acid” value in series [3] (excreted in the urine) is given as “About 70%”. Besides, the “Tmax following oral administration (mean)” value in series [3] (immediate release, oral) is reported as 1.5 h. In series [3] (in vivo), the “d-threo to l-threo plasma concentration ratio” value is listed as ~10:1 and the systemic half-life entry is “approximately 3 hours”.
For the compound `COc1ccc2c3c1O[C@H]1C(=O)CC[C@@]4(O)[C@@H](C2)N(C)CC[C@]314` [oxycodone free base form, oxycodone], the “observation upon heating in volatilization test” value in series [1] was “vaporizes/sublimes upon heating”.
